Assay results taken from patent publication US12453709B2, “Compositions and methods for treating autism” (priority 2013, dated 2025).
Marks after values point to notes of the source that are not given here.

Tested on: male patients diagnosed with autism
Assay: Study HT 02-121: adverse events
Assay type: in vivo, human
Method: The purpose of this clinical study (referred to herein as “Study HT 02-121”; i.e., Example 6) was to determine whether L1-79 was a well-tolerated and clinically useful agent for the treatment of ASD, and to assess the PK and pharmacodynamics (PD) of four weeks of TID dosing with L1-79. […] The first cohort of 20 patients was comprised of three groups of patients: The first group of five patients received open-label L1-79 100 mg TID and underwent PK and EKG assessments. […] The PK and safety data from the open-label L1-79 100 mg TID group was submitted to FDA for review and acceptance before the second cohort was enrolled. The second cohort was procedurally identical to the first. The second cohort of 20 patients was comprised of the same three groups of patients but a dose of 200 mg TID was used instead of 100 mg TID. The key inclusion criteria were as follows: […] Safety was the primary endpoint of the study. The following safety endpoints were assessed: ECGs, physical exams, laboratory evaluations (hematology, chemistry and urinalysis), vital signs, including orthostatic blood pressure, adverse events (AEs) and concomitant medications. The incidence of AEs by primary system organ class and preferred term is presented in Table 7, and a listing of the AEs reported during the study is presented in Table 8. All AEs were mild to moderate in intensity and self-limited.

[1] = patient 01-011, OL 200 mg TID, treatment emergent Y, resolved
[2] = patient 02-001, OL 100 mg TID, treatment emergent Y, resolved
[3] = patient 02-018, DB 200 mg TID, treatment emergent Y, resolved

## CC(N)(Cc1ccc(O)cc1)C(=O)O (racemic) [L1-79, α-methyl-DL-tyrosine]
OL 100 mg TID, N = 5
  Incidence of AEs: Nasopharyngitis: 0[0] n(%)
  Incidence of AEs: Nervous system disorders: 0[0] n(%)
  Incidence of AEs: Otitis externa: 0[0] n(%)
  Incidence of AEs: Psychiatric disorders: 2(40.0) n(%)
  Incidence of AEs: Pyrexia: 0[0] n(%)
  Incidence of AEs: Renal and urinary disorders: 0[0] n(%)
  Incidence of AEs: Respiratory, thoracic & mediastinal disorders: 0[0] n(%)
  Incidence of AEs: Seasonal allergy: 0[0] n(%)
  Incidence of AEs: Syncope: 0[0] n(%)
  Incidence of AEs: Urinary incontinence: 0[0] n(%)
  Number of AE events: All primary SOC: 6 [e]
  Number of AE events: Anxiety: 1 [e]
  Number of AE events: Confusional state: 1 [e]
  Number of AE events: International self-injury: 2 [e]
  Number of AE events: Irritability: 2 [e]
  Number of AE events: Psychiatric disorders: 6 [e]
OL 200 mg TID, N = 6
  Incidence of AEs: Agitation: 0[0] n(%)
  Incidence of AEs: All primary SOC: 2(40.0) n(%)
  Incidence of AEs: Amylase †: 0[0] n(%)
  Incidence of AEs: Anxiety: 0[0] n(%)
  Incidence of AEs: Blood TSH †: 0[0] n(%)
  Incidence of AEs: Confusional state: 0[0] n(%)
  Incidence of AEs: Cough: 1(20.0) n(%)
  Incidence of AEs: Crystal urine present: 0[0] n(%)
  Incidence of AEs: Diarrhoea: 0[0] n(%)
  Incidence of AEs: Ear infection: 0[0] n(%)
  Incidence of AEs: Fatigue: 1(20.0) n(%)
  Incidence of AEs: GI disorders: 0[0] n(%)
  Incidence of AEs: General disorders & administration site conditions: 2(40.0) n(%)
  Incidence of AEs: Generalized tonic-clonic seizure: 0[0] n(%)
  Incidence of AEs: Immune system disorders: 1(20.0) n(%)
  Incidence of AEs: Infections and infestations: 0[0] n(%)
  Incidence of AEs: International self-injury: 0[0] n(%)
  Incidence of AEs: Investigations: 0[0] n(%)
  Incidence of AEs: Irritability: 0[0] n(%)
  Incidence of AEs: Nasopharyngitis: 0[0] n(%)
  Incidence of AEs: Nervous system disorders: 0[0] n(%)
  Incidence of AEs: Otitis externa: 0[0] n(%)
  Incidence of AEs: Psychiatric disorders: 0[0] n(%)
  Incidence of AEs: Pyrexia: 1(20.0) n(%)
  Incidence of AEs: Renal and urinary disorders: 0[0] n(%)
  Incidence of AEs: Respiratory, thoracic & mediastinal disorders: 1(20.0) n(%)
  Incidence of AEs: Seasonal allergy: 1(20.0) n(%)
  Incidence of AEs: Syncope: 0[0] n(%)
  Incidence of AEs: Urinary incontinence: 0[0] n(%)
  Number of AE events: All primary SOC: 4 [e]
  Number of AE events: Cough: 1 [e]
  Number of AE events: Fatigue: 1 [e]
  Number of AE events: General disorders & administration site conditions: 2 [e]
  Number of AE events: Immune system disorders: 1 [e]
  Number of AE events: Pyrexia: 1 [e]
  Number of AE events: Respiratory, thoracic & mediastinal disorders: 1 [e]
  Number of AE events: Seasonal allergy: 1 [e]
Patient 01-011, OL 200 mg TID
  AE Relationship: cough: not related
  AE Relationship: pyrexia (fever): not related
[1]
  AE Severity: cough: moderate
  AE Severity: pyrexia (fever): moderate
Patient 01-014, DB 200 mg TID
  AE Relationship: crystal urine present (urine cystine crystal present): not related
Patient 01-014, DB 200 mg TID, reported at 4-week follow-up visit, resolved
  AE Severity: crystal urine present (urine cystine crystal present): mild
Patient 01-016, DB 200 mg TID
  AE Relationship: diarrhoea (diarrhea): not related
Patient 01-016, DB 200 mg TID, treatment emergent Y, resolved
  AE Severity: diarrhoea (diarrhea): moderate
Patient 01-016, OL 200 mg TID
  AE Relationship: fatigue (tiredness): possibly related
  AE Relationship: seasonal allergy: not related
Patient 01-016, OL 200 mg TID, treatment emergent Y, not resolved
  AE Severity: seasonal allergy: moderate
Patient 01-016, OL 200 mg TID, treatment emergent Y, resolved
  AE Severity: fatigue (tiredness): mild
Patient 01-018, DB 200 mg TID
  AE Relationship: crystal urine present (urine cystine crystal present): not related
Patient 01-018, DB 200 mg TID, reported at 4-week follow-up visit, resolved
  AE Severity: crystal urine present (urine cystine crystal present): mild
Patient 02-001, OL 100 mg TID
  AE Relationship: anxiety (anxious): possibly related
  AE Relationship: confusional state (mental confusion): possibly related
  AE Relationship: intentional self-injury (self injurious behavior): possibly related
  AE Relationship: irritability: possibly related
[2]
  AE Severity: anxiety (anxious): mild
  AE Severity: confusional state (mental confusion): mild
  AE Severity: intentional self-injury (self injurious behavior): mild
  AE Severity: irritability: mild
Patient 02-002, OL 100 mg TID
  AE Relationship: intentional self-injury (violent episodes of self injurious behavior): probably related
  AE Relationship: irritability: probably related
Patient 02-002, OL 100 mg TID, treatment emergent Y, outcome unknown
  AE Severity: irritability: mild
Patient 02-002, OL 100 mg TID, treatment emergent Y, resolving
  AE Severity: intentional self-injury (violent episodes of self injurious behavior): mild
Patient 02-009, DB 100 mg TID
  AE Relationship: synoope (synoope): not related
Patient 02-009, DB 100 mg TID, treatment emergent Y, resolved
  AE Severity: synoope (synoope): mild
Patient 02-018, DB 200 mg TID
  AE Relationship: anxiety (anxious mood): possibly related
  AE Relationship: blood thyroid stimulating hormone increased (elevated TSH): possibly related
  AE Relationship: diarrhoea (diarrhea): possibly related
  AE Relationship: otitis externa: not related
Patient 02-018, DB 200 mg TID, reported at 4-week follow-up visit, resolved
  AE Severity: blood thyroid stimulating hormone increased (elevated TSH): moderate
[3]
  AE Severity: anxiety (anxious mood): mild
  AE Severity: diarrhoea (diarrhea): moderate
  AE Severity: otitis externa: mild
Patient 02-023, DB 200 mg TID
  AE Relationship: generalized tonic-clonic seizer (grand mal seizure): possibly related
Patient 02-023, DB 200 mg TID, treatment emergent Y, resolved, discontinued Y
  AE Severity: generalized tonic-clonic seizer (grand mal seizure): moderate
Patient 02-024, DB 200 mg TID
  AE Relationship: diarrhoea (diarrhea): not related
Patient 02-024, DB 200 mg TID, AE reported pre-treatment
  AE Relationship: ear infection: not related
Patient 02-024, DB 200 mg TID, AE reported pre-treatment, resolving
  AE Severity: ear infection: mild
Patient 02-024, DB 200 mg TID, treatment emergent Y, resolved
  AE Severity: diarrhoea (diarrhea): mild
